Reference: the NIST ThermoML archive (doi:10.1021/je300557g)

Test: xn = mol fraction of the nth substance listed
Conditions: 101 kPa, Liquid; for mass density: Vibrating tube method

CCCC[n+]1ccc(C)cc1.F[B-](F)(F)F [1-butyl-4-methylpyridinium tetrafluoroborate] + CCO
Conditions | kinematic viscosity, 293.15 K [m2/s] | kinematic viscosity, 303.15 K [m2/s] | kinematic viscosity, 313.15 K [m2/s] | kinematic viscosity, 323.15 K [m2/s] | mass density, 293.15 K [kg/m3] | mass density, 303.15 K [kg/m3] | mass density, 313.15 K [kg/m3] | mass density, 323.15 K [kg/m3]
x1 = 0.0481 | 1.95e-06 | 1.61e-06 | 1.34e-06 | 1.14e-06 | 852 | 843.78 | 835.55 | 827.17
x1 = 0.0952 | 2.57e-06 | 2.07e-06 | 1.69e-06 | 1.41e-06 | 900.2 | 892.25 | 884.1 | 875.8
x1 = 0.1896 | 4.08e-06 | 3.17e-06 | 2.53e-06 | 2.08e-06 | 972.12 | 964.56 | 956.53 | 948.48
x1 = 0.2856 | 6.35e-06 | 4.76e-06 | 3.75e-06 | 3.03e-06 | 1024.13 | 1016.72 | 1008.96 | 1001.26
x1 = 0.3839 | 9.91e-06 | 7.25e-06 | 5.54e-06 | 4.4e-06 | 1063.87 | 1056.57 | 1049.08 | 1041.7
x1 = 0.5297 | 1.96e-05 | 1.44e-05 | 1.05e-05 | 7.4e-06 | 1107.23 | 1100.11 | 1092.88 | 1085.83
x1 = 0.5858 | 2.57e-05 | 1.76e-05 | 1.33e-05 | 9.33e-06 | 1120.51 | 1113.47 | 1106.29 | 1099.32
x1 = 0.6862 | 4e-05 | 2.78e-05 | 1.96e-05 | 1.36e-05 | 1140.91 | 1133.97 | 1126.84 | 1119.98
x1 = 0.7889 | 7.27e-05 | 4.37e-05 | 3.05e-05 | 2.08e-05 | 1158.26 | 1151.41 | 1144.3 | 1137.51
x1 = 0.8418 | 9.79e-05 | 5.71e-05 | 3.87e-05 | 2.59e-05 | 1166.08 | 1159.26 | 1152.16 | 1145.41
x1 = 0.8942 | 0.000132 | 7.41e-05 | 4.81e-05 | 3.15e-05 | 1173.2 | 1166.4 | 1159.32 | 1152.61
x1 = 0.946 | 0.000177 | 9.52e-05 | 5.94e-05 | 3.79e-05 | 1179.69 | 1172.89 | 1165.84 | 1159.18
